For this experiment, the target named is prostaglandin E2 receptor. Briefly: inhibition of [^3 H]-PGE2 receptor binding in rat uterus membrane fraction. The settings on record: 5 nM [^3 H]-PGE2, rat uterus crude membrane fraction, pH 6.0, 1 hour at room temperature, read-out: IC50, inhibitory effects of PGE2 receptor binding in rat. On the procedure:
(i) The measurement of the inhibition of [^3 H]-PGE2 receptor binding
The standard assay mixture contained 5 nM [^3 H]-PGE2 (50 μl), test compounds (50 μl) and crude membrane fraction obtained from rat uterus (1.2 mg protein/ml, 100 μl) in a final volume of 200 μl (10 mM potassium phosphate pH 6.0, 0.1M NaCl (buffer A)). After incubation for 1 hour at room temperature, the reaction was stopped by the addition of 3 ml of ice-cold buffer A, after which the mixture was rapidly filtered through a Whatman GF/B glass filter. The radioactivity associated with the filter was measured in ACS II (Amarsham) by liquid scintillation counting. Percent inhibition of specific [^3 H]-PGE2 binding or IC50 value, the concentration required to compete with ^3 H-PGE2 receptor binding by 50% were calculated.

Like-named read-outs stand apart in the source and are kept apart here.

As a reminder, the IC50 is the concentration that inhibits the measured activity by half. For `CCCCCCCCS(=O)(=O)N[C@H]1C[C@H]2C[C@@H]([C@@H]1C/C=C\CCCC(=O)O)C2(C)C` [3 (l), 7-[(1S,2S,3S,5R)-3-octylsulfonylamino-6,6-dimethylbicyclo[3.1.1]heptan-2-yl]-5Z-heptenoic acid], the IC50 (Table I) worked out at 360 nM.

For the compound `O=C(O)CCC/C=C\C1CCCC1CNS(=O)(=O)c1ccc(Br)cc1` (centres unmarked), the IC50 (Table I) stood at 1800 nM.

Consider `Cc1ccc(S(=O)(=O)NCC2C3CCC(C3)C2/C=C\CCCC(=O)O)cc1` (centres unmarked) [U.S. Pat. No. 5168101 1 (p)], for which the IC50 (Table I) is 6400 nM.

For `O=C(O)CCC/C=C\C[C@H]1CCC[C@@H]1NS(=O)(=O)c1ccc(Br)cc1` (relative stereo) [5 (h), 7-[(1R*,2S*)-2-(4-bromophenylsulfonylamino)cyclopentyl]-5Z-heptenoic acid], under “Table I”, the IC50 was found to be 200 nM.

As for `O=C(O)CCC/C=C\[C@@H]1[C@H]2CC[C@H](C2)[C@H]1CNS(=O)(=O)/C=C/c1ccccc1` [6 (18), 6-[(1S, 2S, 3R, 4R)-3-(2-phenylvinylsulfonylaminomethyl)bicyclo[2.2.1]heptan-2-yl]-5Z-hexenoic acid], the IC50 (Table II) was found to be 17 nM.

Turning to `O=C(O)CCCC=CC1C2CCC(C2)C1CNS(=O)(=O)c1ccc(Br)cc1` [5 (i), 6-[(1S,2S,3S,4R)-3-(4-bromophenylsulfonylaminomethyl)bicyclo[2.2.1]heptan-2-yl]-5Z-hexenoic acid], where the note is “Table I”, the IC50 was found to be 6500 nM.

Consider `CCCC/C=C/S(=O)(=O)N[C@H]1C[C@H]2C[C@@H]([C@@H]1C/C=C\CCCC(=O)O)C2(C)C` [6 (14)], for which the IC50 (Table II) is 800 nM.

On to `O=C(O)CCC/C=C\[C@@H]1CCC[C@@H](NS(=O)(=O)/C=C/c2ccccc2)C1` (relative stereo) [6 (21), 6-[(1R*, 3R*)-3-(2-phenylvinylsulfonylamino)cyclohexyl]-5Z-hexenoic], for which the IC50 (Table II) was determined as 600 nM.

For the compound `O=C(O)CCC/C=C\C1CCCCC1CNS(=O)(=O)c1ccc(Br)cc1` (centres unmarked) [U.S. Pat. No. 5168101 1 (t)], the IC50 (Table I) is 1200 nM.

As for `CC1(C)[C@H]2C[C@H](NS(=O)(=O)c3ccc(I)cc3)[C@@H](C/C=C\CCCC(=O)O)[C@@H]1C2` [3 (g), 7-[(1S,2S,3S,5R)-3-(4-iodophenyl)sulfonylamino-6,6-dimethylbicyclo[3.1.1]heptan-2-yl]-5Z-heptenoic], the IC50 (Table I) was 54 nM.

For `O=C(O)CCC/C=C\CC1CCCCC1NS(=O)(=O)c1ccc(Br)cc1` (centres unmarked) [5 (f), 7-[2-(4-bromophenylsulfonylamino)cyclohexyl]-5Z-heptenoic acid], the IC50 (Table I) came to 5000 nM.

`Cc1ccc(S(=O)(=O)NCC2C3CCC(C3)C2C=CCCCC(=O)O)cc1` (centres unmarked) [U.S. Pat. No. 5168101 1 (x)]: the IC50 (Table I) came out at 1600 nM.

`Cc1ccc(S(=O)(=O)N[C@H]2C3CCC(CC3)[C@@H]2C/C=C\CCCC(=O)O)cc1` [5 (d), 7-[(2S,3S)-3-tosylaminobicyclo[2.2.2]octan-2-yl]-5Z-heptenoic acid]: for the setting “Table I”, the IC50 was determined as 2100 nM.

As for `O=C(O)CCCC=CC1C2CCC(C2)C1CNS(=O)(=O)c1ccc(Br)cc1` (centres unmarked) [U.S. Pat. No. 5168101 1 (cc)], the IC50 (Table I) is 390 nM.

As to `O=C(O)CCC/C=C\C[C@H]1CCCC[C@@H]1NS(=O)(=O)/C=C/c1ccccc1` (relative stereo) [6 (19), 7-[(1R*, 2S*)-2-(2-phenylvinylsulfonylamino)cyclohexyl]-5Z-heptenoic], the IC50 (Table II) stood at 230 nM.

Turning to `CC1(C)[C@H]2C[C@H](NS(=O)(=O)c3ccc4ccccc4c3)[C@@H](C/C=C\CCCC(=O)O)[C@@H]1C2` [3 (i), 7-[(1S,2S,3S,5R)-3-(2-naphtyl)sulfonylamino-6,6-dimethylbicyclo[3.1.1]heptan-2-yl]-5Z-heptenoic], the IC50 (Table I) was 90 nM.

As to `Cc1ccc(S(=O)(=O)N[C@H]2[C@H]3CC[C@H](C3)[C@@H]2C/C=C\CCCC(=O)O)cc1` (relative stereo) [5 (c), 7-[(1R*,2S*,3S*,4S*)-3-tosylaminobicyclo[2.2.1]heptan-2-yl]-5Z-heptenoic acid], the IC50 (Table I) was determined as 5700 nM.

For `O=C(O)CCC/C=C\C1CC2CC(NS(=O)(=O)c3ccc(Br)cc3)C1C2` (centres unmarked) [U.S. Pat. No. 5168101 1 (b)], the IC50 (Table I) came to 3500 nM.

On to `O=C(O)CCC/C=C\C1CC2CC(NS(=O)(=O)c3ccc(Br)cc3)C1C2` (centres unmarked) [U.S. Pat. No. 5168101 1 (c)], for which the IC50 (Table I) was determined as 500 nM.

`Cc1ccc(S(=O)(=O)NCC2CCCC2/C=C\CCCC(=O)O)cc1` (centres unmarked): the IC50 (Table I) was found to be 8000 nM.

For `CC1(C)[C@H]2C[C@H](NS(=O)(=O)/C=C/c3ccccc3)[C@@H](C/C=C/CCCC(=O)O)[C@@H]1C2` [6 (26), 7-[(1S, 2S, 3S, 5R)-3-(2-phenylvinylsulfonylamino)-6,6-dimethylbicyclo [3.1.1]heptan-2-yl]-5E-heptenoic acid], the IC50 (Table II) was determined as 38 nM.

With `O=C(O)CCC/C=C\[C@H]1CC[C@@H](NS(=O)(=O)/C=C/c2ccccc2)C1` [6 (22), 6-[(1S, 3R)-3-(2-phenylvinylsulfonyl-amino)cyclopentyl]-5Z-hexenoic], the IC50 (Table II) worked out at 1800 nM.

Turning to `Cc1ccc(S(=O)(=O)N[C@H]2CCC[C@@H]2C/C=C\CCCC(=O)O)cc1` (relative stereo) [5 (g), 7-[(1R*,2S*)-2-tosylaminocyclopentyl-5Z-heptenoic acid], for the setting “Table I”, the half-maximal inhibitory concentration (IC50) is 3500 nM.

On to `CC1(C)[C@H]2C[C@H](NS(=O)(=O)C=C(c3ccccc3)c3ccccc3)[C@@H](C/C=C\CCCC(=O)O)[C@@H]1C2` [Example 9, 7-[(1S,2S,3S,5R)-3-(2,2-diphenylvinylsulfonylamino)-6,6-dimethylbicyclo[3.1.1]heptan-2-yl]-5Z-heptenoic acid], for which, where the note is “Table II”, the IC50 was determined as 260 nM.

For the compound `CC1(C)[C@H]2C[C@H](NS(=O)(=O)c3ccc(Cl)cc3)[C@@H](C/C=C\CCCC(=O)O)[C@@H]1C2` [3 (f), 7-[(1S,2S,3S,5R)-3-(4-chlorophenyl)sulfonylamino-6,6-imethylbicyclo[3.1.1]heptan-2-yl]-5Z-heptenoic], the IC50 (Table I) was 750 nM.

For `COc1ccc(S(=O)(=O)N[C@H]2C[C@H]3C[C@@H]([C@@H]2C/C=C\CCCC(=O)O)C3(C)C)cc1` [3 (d), 7-[(1S,2S,3S,5R)-3-(4-methoxyphenyl)sulfonylamino-6,6-dimethylbicyclo[3.1.1]heptan-2-yl]-5Z-heptenoic acid], the IC50 (Table I) was determined as 820 nM.

For the compound `O=C(O)CCC/C=C\[C@@H]1CC[C@H](NS(=O)(=O)c2ccc(Br)cc2)C1` [U.S. Pat. No. 5168101 1 (i)], the IC50 (Table I) was determined as 2400 nM.

Regarding `Cc1ccc(S(=O)(=O)NC2C3CCC(C3)C2C/C=C\CCCC(=O)O)cc1` (racemic) [5 (b), a mixture of 7-[(1R,2S,3S, 4S)-3-tosylaminobicyclo[2.2.1]heptan-2-yl]-5Z-heptenoic acid and an isomer of (1S, 2S,3S,4R)], the IC50 (Table I) was found to be 3400 nM.

For `CC(C)(C)c1ccc(S(=O)(=O)N[C@H]2C[C@H]3C[C@@H]([C@@H]2C/C=C\CCCC(=O)O)C3(C)C)cc1` [3 (c), 7-[(1S,2S,3S,5R)-3-(4-tert-butylphenyl)sulfonylamino-6,6-dimethylbicyclo[3.1.1]heptan-2-yl]-5Z-heptenoic acid], the IC50 (Table I) was determined as 6300 nM.

As to `CC1(C)[C@H]2C[C@H](NS(=O)(=O)CCC3CCCCC3)[C@@H](C/C=C\CCCC(=O)O)[C@@H]1C2` [3 (n), 7-[(1S,2S,3S,5R)-3-(2-cyclohexylethyl)sulfonylamino-6,6-dimethylbicyclo[3.1.1]heptan-2-yl]-5Z-heptenoic acid], for the setting “Table I”, the IC50 was determined as 120 nM.

`O=C(O)CCC/C=C\[C@@H]1CCC[C@H](NS(=O)(=O)c2ccc(Br)cc2)C1` (relative stereo) [U.S. Pat. No. 5168101 1 (m)]: the IC50 (Table I) amounted to 500 nM.

In the case of `Cc1ccc(S(=O)(=O)N[C@H]2C3CCC(CC3)[C@@H]2C/C=C\CCCC(=O)O)cc1` (relative stereo) [5 (a), 7-[(2S*,3S*)-3-tosylaminobicyclo[2.2.2]octan-2-yl]-5Z-heptenoic acid], where the note is “Table I”, the IC50 was determined as 3600 nM.

As for `CC1(C)[C@H]2C[C@H](NS(=O)(=O)c3ccccc3)[C@@H](C/C=C\CCCC(=O)O)[C@@H]1C2` [3 (a), 7-[(1S,2S,3S,5R)-3-phenylsulfonylamino-6,6-dimethylbicyclo[3.1.1]heptan-2-yl]-5Z-heptenoic], the IC50 (Table I) turned out to be 7600 nM.

Consider `O=C(O)CCC/C=C\C1CC2CCC1C(NS(=O)(=O)c1ccc(Br)cc1)C2` (centres unmarked) [U.S. Pat. No. 5168101 1 (a)], for which, under “Table I”, the IC50 amounted to 770 nM.

In the case of `CC1(C)[C@H]2C[C@H](NS(=O)(=O)c3ccc([N+](=O)[O-])cc3)[C@@H](C/C=C\CCCC(=O)O)[C@@H]1C2` [3 (h), 7-[(1S,2S,3S,5R)-3-(4-nitrophenyl)sulfonylamino-6,6-dimethylbicyclo[3.1.1]heptan-2-yl]-5Z-heptenoic], the half-inhibitory concentration (IC50) (Table I) stood at 210 nM.

As for `CC1(C)[C@H]2C[C@H](NS(=O)(=O)c3ccc(F)cc3)[C@@H](C/C=C\CCCC(=O)O)[C@@H]1C2` [3 (e), 7-[(1S,2S,3S,5R)-3-(4-fluorophenyl)sulfonylamino-6,6-imethylbicyclo[3.1.1]heptan-2-yl]-5Z-heptenoic], the IC50 (Table I) was found to be 2600 nM.

Turning to `CC1(C)[C@H]2C[C@H](NS(=O)(=O)/C=C/c3ccc(F)cc3)[C@@H](C/C=C\CCCC(=O)O)[C@@H]1C2` [6 (2), 7-[(1S, 2S, 3S, 5R)-3-[2-(4-fluorophenyl)vinylsulfonylamino]-6,6-dimethylbicyclo[3.1.1]heptan-2-yl]-5Z-heptenoic acid], the IC50 (Table II) was determined as 3.6 nM.

Regarding `CCc1ccc(S(=O)(=O)N[C@H]2C[C@H]3C[C@@H]([C@@H]2C/C=C\CCCC(=O)O)C3(C)C)cc1` [3 (b), 7-[(1S,2S,3S,5R)-3-(4-ethylphenyl)sulfonylamino-6,6-dimethylbicyclo[3.1.1]heptan-2-yl]-5Z-heptenoic], under “Table I”, the IC50 was found to be 570 nM.

Values taken from US5663417A, “Carbocyclic sulfonamides” (Ono Pharmaceutical Co., Ltd., priority 1993, dated 1997).
